Reference: ChEMBL document CHEMBL1147347, “Luffariolides F and G, new manoalide derivatives from the Okinawan marine sponge Luffariella sp” (J Nat Prod, 1993)
Converted amounts (≈) assume the structure as drawn.

Assays:
[1] = system: KB; experiment: Cytotoxicity against human KB cells; format: functional, cell-based
[2] = system: L1210; experiment: Cytotoxicity against mouse L1210 cells; format: functional, cell-based
[3] = system: KB; experiment: Growth inhibition of human KB cells at 10 ug/ml; format: functional; conditions: read-out: GI

| Compound | IC50 [1] | IC50 [2] | inhibition of growth at 10 µg/mL [3] |
| --- | --- | --- | --- |
| CC1=C(CC/C(C)=C/CC/C(C=O)=C\C=C\C2=CC(=O)O[C@H]2O)C(C)(C)CCC1 | 2.1 µg/mL (≈ 5.27 µM) | 0.45 µg/mL (≈ 1.13 µM) |  |
| CC1=C(CC/C(C)=C/CC/C(=C/C[C@H]2OC(=O)C=C2CO)CO)C(C)(C)CCC1 |  | 1.7 µg/mL (≈ 4.22 µM) | 36.9% |
| CC1=C(CC/C(C)=C/CCC2=CC[C@H](C3=CC(=O)O[C@H]3O)O[C@H]2O)C(C)(C)CCC1 [MANOALIDE] | 0.31 µg/mL (≈ 0.744 µM) | 0.032 µg/mL (≈ 0.0768 µM) |  |
| CC(=O)OC/C(=C\C[C@H]1OC(=O)C=C1CO)CC/C=C(\C)CCC1=C(C)CCCC1(C)C |  | 3 µg/mL (≈ 6.75 µM) | 44.8% |
| CC1=C(CCC(C)(O)/C=C/C/C(=C/CC2OC(=O)C=C2CO)CO)C(C)(C)CCC1 (centres undefined) [LUFFARIOLIDE G] |  | 2.8 µg/mL (≈ 6.69 µM) | 30.8% |
| CC1=C(CC/C(C)=C/CC/C(=C/CC2OC(=O)C=C2CO)CO)C(C)(C)CCC1O (centres undefined) [LUFFARIOLIDE F] |  | 1.6 µg/mL (≈ 3.82 µM) | 33.4% |
| CC1=C(CC/C(C)=C/CC/C(C=O)=C\C[C@H]2OC(=O)C=C2CO)C(C)(C)CCC1 | 5.6 µg/mL (≈ 14 µM) | 1 µg/mL (≈ 2.5 µM) |  |
